Values after ≈ are worked out from the molar mass of the structure shown. Square brackets hold non-standard residues; d marks the D form. Peptide text beside a SMILES is read from it. Hyp = O=C(O)[CH]1C[CH](O)CN1; Phe(ol) = N[CH](CO)Cc1ccccc1; Iva = CC[C](C)(N)C(=O)O; Aib = CC(C)(N)C(=O)O
Columns and labels:
[1] = tested on: larvae of the chicken roundworm Ascaridia galli; experiment: larval development test (in vitro) for anthelmintic action; type: cell-based; conditions: A. galli L2 larvae, 5 days medication
Protocol: For the testing of the action of the cephaibols on helminths, an in vitro test (larval development test) was carried out with larvae of the chicken roundworm Ascaridia galli. Embryonate eggs of A. galli were surface-sterilized by treatment with 5% strength sodium hypochlorite solution and, after removal of this solution, mechanically opened by means of rotating glass beads (5 mm). The hatched L2 larvae were enriched via larval enrichment processes, taken up in nutrient medium and incubated at 41° C. and 10% CO2.
48 hours after hatching, the larvae were incubated (41° C., 10% CO2) in microtiter plates (96 well) for 5 days with medicated medium (200 μl) in the concentrations 200, 100, 50 . . . 0.1 μg/ml. During the 5-day incubation period, motility, morphology, and vitality were checked microscopically and documented on a daily basis. After medication, the larval culture was incubated for 48 hours with Neutral Red in a concentration of 0.16%; after removal of the Neutral Red by change of medium, the enrichment of the vital dye in the intestine of the larvae was assessed as an index for active food intake and thus as proof of the vitality. The medication of the larvae with cephaibol A in the concentrations 200, 100, 50, and 25 μg/ml led to 100% mortality; at a concentration of 12.5 μg/ml and 6.25 μg/ml, the mortality was 92% and 20% respectively.

[2] = tested on: cat flea=Ctenocephalides felis; experiment: flea larval test (action on ectoparasites); type: in vivo; conditions: depending on the dose (2000, 1000, 500, 250 ppm etc. in blood meal), in comparison with the solvent control
Protocol: The action against ectoparasites was checked in the flea larval test (cat flea=Ctenocephalides felis). 5 mg of cephaibol A were dissolved in 0.5 ml of acetone and mixed into 500 mg of blood meal (defibrinated sheep blood). After the solvent had evaporated, 2 g of quartz sand were mixed with medicated blood meal such that preparation concentrations of 2000, 1000, 500, 250 ppm etc. resulted. 15 flea eggs per medicated sample or solvent control were added to the mixture of medicated blood meal and quartz sand, which was then incubated at 37° C. and high atmospheric humidity. The larval development, pupation and development to the adult stage were checked at an interval of 3–5 days and the mortality rates were documented.

[3] = tested on: Enterococcus hirae ATCC 10541; experiment: minimal inhibitory concentration (MIC); type: cell-based
[4] = tested on: Enterococcus faecalis ATCC 29212; experiment: minimal inhibitory concentration (MIC); type: cell-based
[5] = tested on: Enterobacter cloacae P 99; experiment: minimal inhibitory concentration (MIC); type: cell-based
[6] = tested on: Enterobacter cloacae 1321 E; experiment: minimal inhibitory concentration (MIC); type: cell-based
Escherichia coli TEM = experiment: minimal inhibitory concentration (MIC); type: cell-based
Escherichia coli 1507 E = experiment: minimal inhibitory concentration (MIC); type: cell-based
Escherichia coli DC 0 = experiment: minimal inhibitory concentration (MIC); type: cell-based
Escherichia coli DC 2 = experiment: minimal inhibitory concentration (MIC); type: cell-based
[7] = tested on: Escherichia coli ATCC 25922; experiment: minimal inhibitory concentration (MIC); type: cell-based
[8] = tested on: Klebsiella aerogenes 1082 E; experiment: minimal inhibitory concentration (MIC); type: cell-based
[9] = tested on: Klebsiella oxytoca 1522 E; experiment: minimal inhibitory concentration (MIC); type: cell-based
[10] = tested on: Pseudomonas aeruginosa 77/2; experiment: minimal inhibitory concentration (MIC); type: cell-based
[11] = tested on: Pseudomonas aeruginosa 1771; experiment: minimal inhibitory concentration (MIC); type: cell-based
[12] = tested on: Pseudomonas aeruginosa 1771 M; experiment: minimal inhibitory concentration (MIC); type: cell-based
[13] = tested on: Pseudomonas aeruginosa ATCC 9027; experiment: minimal inhibitory concentration (MIC); type: cell-based
[14] = tested on: Pseudomonas aeruginosa ATCC 27853; experiment: minimal inhibitory concentration (MIC); type: cell-based
[15] = tested on: Staphylococcus aureus 285; experiment: minimal inhibitory concentration (MIC); type: cell-based
[16] = tested on: Staphylococcus aureus ATCC 29213; experiment: minimal inhibitory concentration (MIC); type: cell-based
[17] = tested on: Streptococcus pyogenes 308 A; experiment: minimal inhibitory concentration (MIC); type: cell-based
[18] = tested on: Streptococcus pyogenes 77 A; experiment: minimal inhibitory concentration (MIC); type: cell-based
[19] = tested on: Bordetella bronchiseptica ATCC 4617; experiment: minimal inhibitory concentration (MIC); type: cell-based
[20] = tested on: Pasteurella multocida 3;tox.pos.; experiment: minimal inhibitory concentration (MIC); type: cell-based
[21] = tested on: Pasteurella haemolytica 7; experiment: minimal inhibitory concentration (MIC); type: cell-based
[22] = tested on: Bordetella bronchiseptica 9; experiment: minimal inhibitory concentration (MIC); type: cell-based
[23] = tested on: Bordetella bronchiseptica 10; experiment: minimal inhibitory concentration (MIC); type: cell-based
[24] = tested on: Pasteurella multocida P 48; experiment: minimal inhibitory concentration (MIC); type: cell-based
[25] = tested on: Pasteurella haemolytica P 53; experiment: minimal inhibitory concentration (MIC); type: cell-based
Mycoplasma gallisepticum = experiment: minimal inhibitory concentration (MIC); type: cell-based
[26] = solubility (physicochemical properties)
Description: (§1) The physicochemical and spectroscopic properties of the cephaibols according to the invention can be summarized as follows: […]

[27] = stability (physicochemical properties); conditions: in neutral, mildly acidic and mildly alkaline medium
Description: as §1

CCC(C)(NC(=O)C(CC(C)C)NC(=O)CNC(=O)C(C)(C)NC(=O)C(C)(C)NC(=O)C(C)(C)NC(=O)C(C)(C)NC(=O)C(Cc1ccccc1)NC(C)=O)C(=O)NC(C)(C)C(=O)N1CC(O)CC1C(=O)NC(CCC(N)=O)C(=O)NC(C)(CC)C(=O)N1CC(O)CC1C(=O)NC(C)(C)C(=O)N1CCCC1C(=O)NC(CO)Cc1ccccc1 (stereo not drawn) [Cephaibol A, AcPhe-Aib-Aib-Aib-Aib-Gly-Leu-Iva-Aib-Hyp-Gln-Iva-Hyp-Aib-Pro-Phe-ol] (Ac-F[Aib][Aib][Aib][Aib]GL[Iva][Aib][Hyp]Q[Iva][Hyp][Aib]P[Phe(ol)]; configuration not given here)
mortality ([1]; 6.25 μg/ml): 20%
mortality ([1]; 12.5 μg/ml): 92%
mortality ([1]; 25 μg/ml): 100%
mortality ([1]; 50 μg/ml): 100%
mortality ([1]; 100 μg/ml): 100%
mortality ([1]; 200 μg/ml): 100%
larvicidal action [2]: > 90%
MIC [3]: 64 µg/mL (≈ 38.3 µM)
MIC [4]: 64 µg/mL (≈ 38.3 µM)
MIC [5]: >128 µg/mL
MIC [6]: >128 µg/mL
MIC (Escherichia coli TEM): >128 µg/mL
MIC (Escherichia coli 1507 E): >128 µg/mL
MIC (Escherichia coli DC 0): >128 µg/mL
MIC (Escherichia coli DC 2): >128 µg/mL
MIC [7]: >128 µg/mL
MIC [8]: >128 µg/mL
MIC [9]: >128 µg/mL
MIC [10]: >128 µg/mL
MIC [11]: >128 µg/mL
MIC [12]: >128 µg/mL
MIC [13]: >128 µg/mL
MIC [14]: >128 µg/mL
MIC [15]: 8 µg/mL (≈ 4.79 µM)
MIC [16]: 16 µg/mL (≈ 9.58 µM)
MIC [17]: 32 µg/mL (≈ 19.2 µM)
MIC [18]: >128 µg/mL
MIC [19]: >128 µg/mL
MIC [20]: >128 µg/mL
MIC [21]: >128 µg/mL
MIC [22]: >128 µg/mL
MIC [23]: >128 µg/mL
MIC [24]: >128 µg/mL
MIC [25]: >128 µg/mL
MIC (Mycoplasma gallisepticum): 64 µg/mL (≈ 38.3 µM)
solubility in polar organic solvents ([26]; polar organic solvents): soluble
solubility in water ([26]; water): only slightly soluble
stability [27]: stable
MIC (Mycoplasma mycoides LC): 128 µg/mL (≈ 76.6 µM)
MIC (Mycoplasma mycoides L): 64 µg/mL (≈ 38.3 µM)

— patent US7067112B2, “Cephaibols: novel antiparasitics from Acremonium tubakii, process for their production, and use thereof” (Sanofi-Aventis Deutschland GmbH, priority 1999, dated 2006)
